How the values were obtained:
MEG-01S = MEG-01S cell viability by MTT assay; format: cell-based, human; details: 24 h treatment, 0-100 µM (Figure 3B)
Experimental: (§1) All bone marrow-derived macrophages (BMM) were obtained by culturing bone marrow cells from the femurs of 6 to 8 week old C57BL/6 male mice in RPMI 1640 medium (Invitrogen Life Technologies, Carlsbad, CA, USA) supplemented with 10 % Fetal calf serum (Invitrogen) 20 U/ml penicillin and 20 µg/ml streptomycin (Invitrogen), 2 mM L-glutamine (Glutamax-1, Invitrogen) in the presence of 10^4 U/ml (100 ng/mL) recombinant human CSF-1 (a gift from Chiron, Emeryville, CA) on bacteriological plastic plates for 7 days. The human megakaryocytic cell line MEG-01S was obtained from the American Type Culture Collection. MEG-01S were maintained in the same media as for BMM, supplemented with 1 mM Sodium Pyruvate (Invitrogen).
Known inhibitors 1 and 2, along with compound 3, were used to treat BMM at three doses (10, 30, 100 µM) in the presence of LPS for 24 h and cell viability was measured by MTT assay. BMM were seeded at 1 x 10^5 cells/well in 96 well plates and treated for 24 h with LPS (10 ng/ml) and compounds at 10, 30 and 100 µM. […] Cell viability was measured by MTT (Sigma-Aldrich) assay as described previously (Irvine, FASEB J, 2006).
The effect of the compounds on MEG-01S cell viability was measured by MTT assay after 24 h treatment across the concentration range 0 - 100 µM of compounds (Figure 3B). […]

[1] = system: mouse primary bone marrow-derived macrophages (BMM); experiment: LPS-inducible PGE2, 6-keto PGF1α and TXB2 production from BMM (EIA), specificity; format: cell-based; details: 24 h, 0-100 µM
Experimental: The human megakaryocytic cell line MEG-01S was obtained from the American Type Culture Collection. MEG-01S were maintained in the same media as for BMM, supplemented with 1 mM Sodium Pyruvate (Invitrogen).
BMM were seeded overnight at 2 x 10^5 cells/ml in 24 well plates before treatment with compound at either 10 µM or 0.1 - 100 µM for 24 h in the presence or absence of lipopolysaccharide (LPS) from Salmonella Minnesota (Sigma-Aldrich) at a final concentration of 10 ng/ml. MEG-01S were seeded at 2 x 10^5 cells/ml and stimulated with PMA (Phorbol 12-myristate 13-acetate) (Sigma-Aldrich) at a final concentration of 0.1 µM for 16 h.

[2] = system: MEG-01S human megakaryocytes; experiment: A23187-inducible PGD2 production in PMA-differentiated MEG-01S (EIA); format: cell-based; details: at 100 µM (Figure 3A)
Experimental: as §1
BMM were seeded overnight at 2 x 10^5 cells/ml in 24 well plates before treatment with compound at either 10 µM or 0.1 - 100 µM for 24 h in the presence or absence of lipopolysaccharide (LPS) from Salmonella Minnesota (Sigma-Aldrich) at a final concentration of 10 ng/ml. […] Supernatants were collected and samples were analysed for PGD2 using Prostaglandin D2 Mox Express EIA kits, PGE2 using Prostaglandin E2 Express EIA kits, the prostacyclin derivative 6-keto PGF1α using the 6-keto Prostaglandin F1α EIA Kit and the Thromboxane A2 derivative TXB2 using the Thromboxane B2 Express EIA kit (Cayman Chemical) according to the manufacturer's instructions. […]

BMM = BMM cell viability by MTT assay; format: cell-based, mouse; details: 10, 30, 100 µM, LPS, 24 h (Figure 1B)
Experimental: as §1
Known inhibitors 1 and 2, along with compound 3, were used to treat BMM at three doses (10, 30, 100 µM) in the presence of LPS for 24 h and cell viability was measured by MTT assay. BMM were seeded at 1 x 10^5 cells/well in 96 well plates and treated for 24 h with LPS (10 ng/ml) and compounds at 10, 30 and 100 µM. MEG-01S were PMA differentiated overnight before compounds were added for a further 24 h at 10, 30 and 100 µM. Cell viability was measured by MTT (Sigma-Aldrich) assay as described previously (Irvine, FASEB J, 2006).

H-PGDS = target: T1, H-PGDS (Homo sapiens, UniProt O60760); experiment: H-PGDS catalyzed conjugation of GSH and CDNB, enzyme inhibition assay; format: biochemical; details: for inhibition at 50 µM / I[50]: percent inhibition at 50 µM, Mean ± Standard Error of triplicate experiments; for inhibition at 50 µM: read-out: I[50]; for IC50: IC50 ± Standard Error of the Mean, triplicate experiments
T1 construct: made in house; host or cells: Escherichia coli BL21 DE3
Experimental: H-PGDS was expressed and purified as described previously (Jowsey, 2001). Briefly, H-PGDS was expressed in Escherichia coli strain BL21 DE3 transformed with the pET17b HPGDS expression construct, grown overnight at 37 °C in 250 ml of Luria-Bertani medium supplemented with 100 µg/ml ampicillin. After 24 h, without induction, bacteria were harvested by centrifugation at 5000 g for 20 min at 4 °C; cell pellets were kept at -70 °C until required. Cells were resuspended in 25 ml of ice-cold phosphate buffered saline (PBS), pH 7.4, containing 1 mM DTT, 0.5 % Triton X-100 and EDTA-free protease inhibitor tablets (F.Hoffmann-La Roche, Dee Why, NSW, Australia), and incubated with rotation for 30 mins at 4 °C. Cells were then lysed by sonication at 90-100 W over 3 x 1 min intervals, while incubated on ice; the lysate clarified by centrifugation at 18000 g for 10 min at 4 °C.
The supernatant was then applied to a GSTPrep FF 16/10 column pre-equilibrated with PBS, pH 7.4, and 1 mM DTT, at 0.4 ml/minute using an AKTA explorer 100 (GE Healthcare, Rydalmere, NSW, Australia), then washed with 5 column volumes of the same buffer at 1 ml/min. Bound H-PGDS was eluted in 5 column volumes of 15 mM reduced glutathione in 50 mM Tris, pH 9.0, at 0.5 ml/min, and dialysed against 100 volumes of 5 mM TrisCl, pH 8.0. The protein was concentrated to 20 mg/ml, as determined by the method of Bradford (Bradford, 1976) using an Amicon Ultra-4 centrifugal filter device (Millipore, North Ryde, NSW, Australia) following manufacturers recommendations. Glycerol was added to a final concentration of 10 % (v/v) prior to storage at -20 °C.
The H-PGDS catalyzed conjugation of GSH and 1-chloro-2,4-dinitrobenzene (CDNB) was used as the biochemical assay for enzyme inhibition. Reactions were performed in 96 well plate format, and product formation was followed at A340 nm over a 10 min internal at 25 °C using a POWERWAVE XS microplate scanning spectrophotometer (Bio-Tek Instruments, Winooski, VT, USA). Reactions were performed in 0.1 M Tris HCl, pH 8.0 containing 2 mM MgCl2, 1 mM CDNB, 2 mM GSH, 2.5 ng/µl purified H-PGDS and 10 % (v/v) ethanol in a 200 µl reaction volume. IC50 values were calculated from rates of conjugation activity determined at eight concentration points bracketing the IC50, where compound solubility allowed, and were corrected for background activity at the same solvent concentrations. All compounds were made up in 100 % DMSO and diluted with 0.1 M Tris HCl, pH 8.0 with 2 mM MgCl2. I50 and IC50 values were determined at a final DMSO composition of no greater than 4 % v/v for all compounds. Non-linear regression analysis and IC50 calculations were performed using GraphPad Prism version 4.0c.
IC50 values were calculated from triplicate experiments, and are presented as IC50 ± Standard Error of the Mean.

T1 sequence (O60760 whole entry): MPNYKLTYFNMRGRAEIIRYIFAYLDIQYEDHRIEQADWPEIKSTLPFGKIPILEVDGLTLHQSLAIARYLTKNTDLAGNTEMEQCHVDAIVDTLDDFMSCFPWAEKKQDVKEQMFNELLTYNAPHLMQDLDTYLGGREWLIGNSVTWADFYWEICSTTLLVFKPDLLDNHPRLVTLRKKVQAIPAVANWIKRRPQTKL

SMILES: c1ccc(C(OC2CCN(CCCc3nn[nH]n3)CC2)c2ccccc2)cc1 [Compound 1, reference compound]
- MEG-01S cell viability (MEG-01S): little effect
- differential effect in inhibition of PGD2 versus PGE2, 6-keto PGF1α or TXB2 (selectivity) [1]: no differential effect
- A23187-inducible PGD2 production [2]: very modest activity
- BMM cell viability (BMM): modest but significant effects

SMILES: O=C(NC(c1ccccc1)c1ccccc1)c1ccc(-c2cccs2)nc1 [Compound 4, N-benzhydryl-6-(thiophen-2-yl)nicotinamide]
- inhibition at 50 µM (H-PGDS): 28.5%

SMILES: O=C(NCc1ccccc1)c1ccc(-c2cccs2)nc1 [Compound 5, N-benzyl-6-(thiophen-2-yl)nicotinamide]
- IC50 (H-PGDS): 597 ± 1200 nM
- inhibition at 50 µM (H-PGDS): 99.5 ± 0.8%

SMILES: O=C(c1ccc(-c2cccs2)nc1)N1CCc2ccccc2C1 [Compound 6, (3,4-dihydroisoquinolin-2(1H)-yl)(6-(thiophen-2-yl)pyridin-3-yl)methanone]
- inhibition at 50 µM (H-PGDS): 72.3 ± 1.5%

SMILES: O=C(c1ccc(-c2cccs2)nc1)N1CCC2(CCc3ccccc32)CC1 [Compound 7, (2,3-dihydrospiro[indene-1,4'-piperidin]-1'-yl)(6-(thiophen-2-yl)pyridin-3-yl)methanone]
- IC50 (H-PGDS): 1970 ± 1200 nM
- inhibition at 50 µM (H-PGDS): 91 ± 0.1%

SMILES: CC(=O)C1(c2ccccc2)CCN(C(=O)c2ccc(-c3cccs3)nc2)CC1 [Compound 8, 1-(4-phenyl-1-(6-(thiophen-2-yl)nicotinoyl)piperidin-4-yl)ethanone]
- inhibition at 50 µM (H-PGDS): 58.7 ± 0.8%

SMILES: O=C(O)c1ccc(CNC(=O)c2ccc(-c3cccs3)nc2)cc1 [Compound 9, 4-((6-(thiophen-2-yl)nicotinamido)methyl)benzoic acid]
- IC50 (H-PGDS): 660 ± 1100 nM
- inhibition at 50 µM (H-PGDS): 98.3 ± 1.1%

SMILES: CS(=O)(=O)N1CC2(CCN(C(=O)c3ccc(-c4cccs4)nc3)CC2)c2ccccc21 [Compound 10, (1-(methylsulfonyl)spiro[indoline-3,4'-piperidin]-1'-yl)(6-(thiophen-2-yl)pyridin-3-yl)methanone]
- IC50 (H-PGDS): 1230 ± 1100 nM
- inhibition at 50 µM (H-PGDS): 90.4 ± 0.5%

SMILES: O=C(c1ccc(-c2cccs2)nc1)N1CCC(n2c(=O)[nH]c3ccccc32)CC1 [Compound 11, 1-(1-(6-(thiophen-2-yl)nicotinoyl)piperidin-4-yl)-1H-benzo[d]imidazol-2(3H)-one]
- IC50 (H-PGDS): 1220 ± 1400 nM
- inhibition at 50 µM (H-PGDS): 90.4 ± 0.7%

SMILES: C[C@H](NC(=O)c1ccc(-c2cccs2)nc1)c1ccc2ccccc2c1 [Compound 12, (S)-N-(1-(naphthalen-2-yl)ethyl)-6-(thiophen-2-yl)nicotinamide]
- IC50 (H-PGDS): 86 nM
- inhibition at 50 µM (H-PGDS): 99.8 ± 0.3%

SMILES: O=C(c1ccc(-c2cccs2)nc1)N1CCC(N2C(=O)OCc3ccccc32)CC1 [Compound 13, 1-(1-(6-(thiophen-2-yl)nicotinoyl)piperidin-4-yl)-1H-benzo[d][1,3]oxazin-2(4H)-one]
- IC50 (H-PGDS): 3400 ± 1400 nM
- I[50] (H-PGDS): 87.9 ± 1.1%

SMILES: NC(=O)[C@H](Cc1ccccc1)NC(=O)c1ccc(-c2ccc(C=O)s2)nc1 [Compound 14]
- IC50 (H-PGDS): 1700 ± 1800 nM
- inhibition at 50 µM (H-PGDS): 83.4 ± 1.5%

SMILES: NC(=O)[C@H](Cc1ccccc1)NC(=O)c1ccc(-c2ccc(C(=O)O)s2)nc1 [Compound 15]
- I[50] (H-PGDS): 19.4 ± 1.4%

SMILES: NC(=O)[C@H](Cc1ccccc1)NC(=O)c1ccc(-c2ccc(Cl)s2)nc1 [Compound 16]
- IC50 (H-PGDS): 1400 ± 1300 nM
- inhibition at 50 µM (H-PGDS): 89.4 ± 4.7%

SMILES: Cc1ccc(-c2ccc(C(=O)N[C@@H](Cc3ccccc3)C(N)=O)cn2)s1 [Compound 17]
- IC50 (H-PGDS): 2000 ± 1100 nM
- inhibition at 50 µM (H-PGDS): 95 ± 1.1%

SMILES: CC(=O)c1ccc(-c2ccc(C(=O)N[C@@H](Cc3ccccc3)C(N)=O)cn2)s1 [Compound 18]
- IC50 (H-PGDS): 5100 ± 1100 nM
- inhibition at 50 µM (H-PGDS): 65.5 ± 7.7%

SMILES: NC(=O)[C@H](Cc1ccccc1)NC(=O)c1ccc(-c2sccc2Cl)nc1 [Compound 19]
- IC50 (H-PGDS): 3200 ± 1600 nM
- inhibition at 50 µM (H-PGDS): 94.8 ± 2.4%

SMILES: N#Cc1ccc(-c2ccc(C(=O)N[C@@H](Cc3ccccc3)C(N)=O)cn2)s1 [Compound 20]
- I[50] (H-PGDS): 67.9 ± 1.6%

SMILES: Cc1csc(-c2ccc(C(=O)N[C@@H](Cc3ccccc3)C(N)=O)cn2)c1 [Compound 21]
- IC50 (H-PGDS): 380 ± 1100 nM
- inhibition at 50 µM (H-PGDS): 97.4 ± 0.8%

SMILES: Cc1cc(-c2ccc(C(=O)N[C@@H](Cc3ccccc3)C(N)=O)cn2)sc1C#N [Compound 22]
- I[50] (H-PGDS): 34.6 ± 2.1%

SMILES: Cc1ccsc1-c1ccc(C(=O)N[C@@H](Cc2ccccc2)C(N)=O)cn1 [Compound 23]
- IC50 (H-PGDS): 1870 ± 1100 nM
- inhibition at 50 µM (H-PGDS): 91.6 ± 0.8%

SMILES: CC(NC(=O)C(Cc1ccccc1)NC(=O)c1ccc(-c2cccs2)nc1)C(N)=O (stereo not drawn) [Compound 24]
- IC50 (H-PGDS): 860 ± 1200 nM
- inhibition at 50 µM (H-PGDS): 94.6 ± 0.3%

SMILES: Cc1csc(-c2ccc(C(=O)N[C@@H](C)c3ccc4ccccc4c3)cn2)c1 [Compound 25]
- IC50 (H-PGDS): 180 nM
- inhibition at 50 µM (H-PGDS): 96.9 ± 1%

Reference: patent EP2576536B1, “HAEMATOPOIETIC-PROSTAGLANDIN D2 SYNTHASE INHIBITORS” (priority 2010, dated 2011)
